Laboratory results: PMC5073051 (European journal of medicinal chemistry, 2016)

Key:
SAS cells = conditions: read-out: cytotoxicity IC50, SAS oral cancer cells; cited from earlier work
OEC-M1 cells = conditions: read-out: cytotoxicity IC50, OEC-M1 oral cancer cells; cited from earlier work
MDA-MB-231 cells = assay: HGF-induced cell migration wound-healing assay; conditions: Homo sapiens, MDA-MB-231, 24 h, read-out: Antimigratory activity IC50 ± SEM, MDA-MB-231, wound-healing assay, HGF 40 ng/mL, 24 h
[1] = molecular target: human placental glutathione S-transferase (GST); conditions: read-out: inhibition of human placental GST activity IC50; cited from earlier work

IC50 (MDA-MB-231 cells) [µM] | SMILES | IC50 (SAS cells) [µM] | IC50 (OEC-M1 cells) [µM] | IC50 [1] [µM]
 | COc1cc(/C=C/C(=O)OCCc2ccc(O)cc2)ccc1O [Compound 5, Tyrosol ferulate] | > 100 | > 100 | 
 | O=C(/C=C/c1ccc(O)cc1)OCCc1ccc(O)cc1 [Compound 6, Tyrosol coumarate] | > 100 | > 100 | 
< 5 | COc1cc(/C=C/C=N/CCc2ccc(O)cc2)cc(OC)c1O [Compound 11] |  |  | 
 | COc1cc(/C=C/COC(=O)/C=C/c2ccc(O)c(OC)c2)ccc1O [Compound 40, coniferyl ferulate] |  |  | 0.3
